In PubChem BioAssay (NCI):
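How tested: cells in 96-well plates exposed to compound for 48 hours at five concentrations. GI50: concentration for 50% inhibition of growth. TGI: total growth inhibition.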

Key:
Assay in all cases: NCI anticancer screen, dose series, 48 h; in the data active means GI50 below about 0.43 µM; inactive means the rest
A498 renal = system: A498 renal
SF-295 CNS = system: SF-295 CNS
SNB-75 CNS = system: SNB-75 CNS
DU-145 prostate = system: DU-145 prostate
NCI-H522 lung = system: NCI-H522 lung
ACHN renal = system: ACHN renal
LOX IMVI melanoma = system: LOX IMVI melanoma
NCI/ADR-RES ovarian = system: NCI/ADR-RES ovarian
SK-OV-3 ovarian = system: SK-OV-3 ovarian
NCI-H226 lung = system: NCI-H226 lung
A549 NSCLC = system: A549 NSCLC
MALME-3M melanoma = system: MALME-3M melanoma
BT-549 breast = system: BT-549 breast
SF-268 CNS = system: SF-268 CNS
HL-60(TB) leukemia = system: HL-60(TB) leukemia
OVCAR-4 ovarian = system: OVCAR-4 ovarian
UACC-257 melanoma = system: UACC-257 melanoma
SK-MEL-2 melanoma = system: SK-MEL-2 melanoma
SNB-19 CNS = system: SNB-19 CNS
IGROV1 ovarian = system: IGROV1 ovarian
PC-3 prostate = system: PC-3 prostate
HCT-116 colon = system: HCT-116 colon
CCRF-CEM leukemia = system: CCRF-CEM leukemia
OVCAR-5 ovarian = system: OVCAR-5 ovarian
TK-10 renal = system: TK-10 renal
NCI-H23 lung = system: NCI-H23 lung
HCC-2998 colon = system: HCC-2998 colon
OVCAR-8 ovarian = system: OVCAR-8 ovarian
MDA-MB-435 = system: MDA-MB-435
SF-539 CNS = system: SF-539 CNS
HT29 colon = system: HT29 colon
HCT-15 colon = system: HCT-15 colon
M14 melanoma = system: M14 melanoma
SN12C renal = system: SN12C renal
MCF7 breast = system: MCF7 breast
COLO 205 colon = system: COLO 205 colon
SW-620 colon = system: SW-620 colon
MDA-MB-231 breast = system: MDA-MB-231 breast
RPMI-8226 leukemia = system: RPMI-8226 leukemia
K-562 leukemia = system: K-562 leukemia
NCI-H460 lung = system: NCI-H460 lung
786-0 renal = system: 786-0 renal
HOP-62 NSCLC = system: HOP-62 NSCLC
RXF 393 renal = system: RXF 393 renal
U251 CNS = system: U251 CNS
KM12 colon = system: KM12 colon
MOLT-4 leukemia = system: MOLT-4 leukemia
SR leukemia = system: SR leukemia
SK-MEL-28 melanoma = system: SK-MEL-28 melanoma
UACC-62 melanoma = system: UACC-62 melanoma
T-47D breast = system: T-47D breast
HOP-92 NSCLC = system: HOP-92 NSCLC
OVCAR-3 ovarian = system: OVCAR-3 ovarian
SK-MEL-5 melanoma = system: SK-MEL-5 melanoma
UO-31 renal = system: UO-31 renal

COc1cc(-c2cncn2-c2ccc(-c3nc4ccc(F)cc4s3)cc2)ccc1F
79 µM: TGI (BT-549 breast)
52.2 µM: TGI (SNB-75 CNS)
inactive: GI50 (SF-295 CNS) 12.7 µM | GI50 (SNB-75 CNS) 20.6 µM | GI50 (DU-145 prostate) 14.3 µM | GI50 (NCI-H522 lung) 9.9 µM | GI50 (ACHN renal) 29.1 µM | GI50 (LOX IMVI melanoma) 35.9 µM | GI50 (NCI/ADR-RES ovarian) 30.6 µM | GI50 (SK-OV-3 ovarian) > 100 µM | GI50 (NCI-H226 lung) 49.3 µM | GI50 (A549 NSCLC) 12.3 µM | GI50 (MALME-3M melanoma) 11.1 µM | GI50 (BT-549 breast) 11.5 µM | GI50 (SF-268 CNS) 31.2 µM | GI50 (HL-60(TB) leukemia) 2500 nM | GI50 (OVCAR-4 ovarian) 11.4 µM | GI50 (UACC-257 melanoma) 4.11 µM | GI50 (SK-MEL-2 melanoma) 39.7 µM | GI50 (SNB-19 CNS) > 100 µM | GI50 (IGROV1 ovarian) 15.4 µM | GI50 (PC-3 prostate) 3.47 µM | GI50 (HCT-116 colon) 4.36 µM | GI50 (CCRF-CEM leukemia) 6.92 µM | GI50 (OVCAR-5 ovarian) > 100 µM | GI50 (TK-10 renal) 38.8 µM | GI50 (NCI-H23 lung) 8.25 µM | GI50 (HCC-2998 colon) > 100 µM | GI50 (OVCAR-8 ovarian) 15.2 µM | GI50 (MDA-MB-435) 17.1 µM | GI50 (SF-539 CNS) 75.9 µM | GI50 (HT29 colon) 10.8 µM | GI50 (HCT-15 colon) 82.3 µM | GI50 (M14 melanoma) 33.4 µM | GI50 (SN12C renal) 31.9 µM | GI50 (MCF7 breast) 23.5 µM | GI50 (COLO 205 colon) 56.8 µM | GI50 (SW-620 colon) 7.81 µM | GI50 (MDA-MB-231 breast) 32.2 µM | GI50 (RPMI-8226 leukemia) 4.11 µM | GI50 (K-562 leukemia) 3.93 µM | GI50 (NCI-H460 lung) 5.7 µM | GI50 (786-0 renal) 36.1 µM | GI50 (HOP-62 NSCLC) 40.7 µM | GI50 (RXF 393 renal) 13.5 µM | GI50 (U251 CNS) 12.6 µM | GI50 (KM12 colon) 6.4 µM | GI50 (MOLT-4 leukemia) 3.41 µM | GI50 (SR leukemia) 4.99 µM | GI50 (SK-MEL-28 melanoma) 35.1 µM | GI50 (UACC-62 melanoma) 8.67 µM | GI50 (T-47D breast) 7.98 µM | GI50 (HOP-92 NSCLC) 5.47 µM | GI50 (OVCAR-3 ovarian) 5.71 µM | GI50 (SK-MEL-5 melanoma) 12.1 µM | GI50 (UO-31 renal) 16.5 µM
38.7 µM: TGI (HCT-116 colon)
37.3 µM: TGI (OVCAR-3 ovarian)
47.7 µM: TGI (IGROV1 ovarian)
16.9 µM: TGI (A498 renal)
active: GI50 (A498 renal) 43.2 nM
37.2 µM: TGI (NCI-H522 lung)
91.8 µM: TGI (HOP-92 NSCLC)
7.37 µM: TGI (HL-60(TB) leukemia)
20.7 µM: TGI (NCI-H460 lung)
73.3 µM: TGI (DU-145 prostate)
> 100 µM: TGI (SF-295 CNS) | TGI (ACHN renal) | TGI (LOX IMVI melanoma) | TGI (NCI/ADR-RES ovarian) | TGI (SK-OV-3 ovarian) | TGI (NCI-H226 lung) | TGI (A549 NSCLC) | TGI (MALME-3M melanoma) | TGI (SF-268 CNS) | TGI (OVCAR-4 ovarian) | TGI (UACC-257 melanoma) | TGI (SK-MEL-2 melanoma) | TGI (SNB-19 CNS) | TGI (PC-3 prostate) | TGI (CCRF-CEM leukemia) | TGI (OVCAR-5 ovarian) | TGI (TK-10 renal) | TGI (NCI-H23 lung) | TGI (HCC-2998 colon) | TGI (OVCAR-8 ovarian) | TGI (MDA-MB-435) | TGI (SF-539 CNS) | TGI (HT29 colon) | TGI (HCT-15 colon) | TGI (M14 melanoma) | TGI (SN12C renal) | TGI (MCF7 breast) | TGI (COLO 205 colon) | TGI (SW-620 colon) | TGI (MDA-MB-231 breast) | TGI (RPMI-8226 leukemia) | TGI (K-562 leukemia) | TGI (786-0 renal) | TGI (HOP-62 NSCLC) | TGI (RXF 393 renal) | TGI (U251 CNS) | TGI (KM12 colon) | TGI (MOLT-4 leukemia) | TGI (SR leukemia) | TGI (SK-MEL-28 melanoma) | TGI (UACC-62 melanoma) | TGI (T-47D breast) | TGI (SK-MEL-5 melanoma) | TGI (UO-31 renal)
